Laboratory results published in the supplement of paper PMC13380429.

Assays:
Details in all cases: 72 h
Vero E6 [1] = assay: relative viability EC50 (midpoint between 100% and the lowest measured viability); higher = less toxic
U2OS [2] = assay: as above
Calu-3 [3] = assay: as above
Caco-2 [4] = assay: as above
HepG2 [5] = assay: as above
Vero E6 [6] = assay: drug sensitivity score (DSS) for viability; higher = more toxic; extreme values may be limits of the assay
U2OS [7] = assay: as above
Calu-3 [8] = assay: as above
Caco-2 [9] = assay: as above
HepG2 [10] = assay: as above
Vero E6 [11] = assay: cell viability relative to DMSO; higher = less toxic
U2OS [12] = assay: as above
Calu-3 [13] = assay: as above
Caco-2 [14] = assay: as above
HepG2 [15] = assay: as above

| SMILES | relative viability EC50 (Vero E6 [1]) | relative viability EC50 (U2OS [2]) | relative viability EC50 (Calu-3 [3]) | relative viability EC50 (Caco-2 [4]) | relative viability EC50 (HepG2 [5]) | drug sensitivity score (Vero E6 [6]) | drug sensitivity score (U2OS [7]) | drug sensitivity score (Calu-3 [8]) | drug sensitivity score (Caco-2 [9]) | drug sensitivity score (HepG2 [10]) | cell viability (Vero E6 [11]; 1 nM) | cell viability (Vero E6 [11]; 10 nM) | cell viability (Vero E6 [11]; 100 nM) | cell viability (Vero E6 [11]; 1000 nM) | cell viability (Vero E6 [11]; 10000 nM) | cell viability (U2OS [12]; 1 nM) | cell viability (U2OS [12]; 10 nM) | cell viability (U2OS [12]; 100 nM) | cell viability (U2OS [12]; 1000 nM) | cell viability (U2OS [12]; 10000 nM) | cell viability (Calu-3 [13]; 1 nM) | cell viability (Calu-3 [13]; 10 nM) | cell viability (Calu-3 [13]; 100 nM) | cell viability (Calu-3 [13]; 1000 nM) | cell viability (Calu-3 [13]; 10000 nM) | cell viability (Caco-2 [14]; 1 nM) | cell viability (Caco-2 [14]; 10 nM) | cell viability (Caco-2 [14]; 100 nM) | cell viability (Caco-2 [14]; 1000 nM) | cell viability (Caco-2 [14]; 10000 nM) | cell viability (HepG2 [15]; 1 nM) | cell viability (HepG2 [15]; 10 nM) | cell viability (HepG2 [15]; 100 nM) | cell viability (HepG2 [15]; 1000 nM) | cell viability (HepG2 [15]; 10000 nM) |
| --- | --- | --- | --- | --- | --- | --- | --- | --- | --- | --- | --- | --- | --- | --- | --- | --- | --- | --- | --- | --- | --- | --- | --- | --- | --- | --- | --- | --- | --- | --- | --- | --- | --- | --- | --- |
| CCC(CC)(CC(=O)Nc1cccc(/C=C/c2nc(C3CCC3)cs2)c1)C(=O)O [cinalukast] | > 10 µM | > 10 µM | > 10 µM | > 10 µM | > 10 µM | 0 | 0 | 0 | 0 | 0 | 101% | 109% | 101% | 98.2% | 96.6% | 102% | 96.7% | 107% | 99.4% | 103% | 98.9% | 89.9% | 88.1% | 88.4% | 101% | 99.2% | 97.1% | 102% | 96.9% | 90.7% | 97.4% | 108% | 106% | 91.9% | 95.7% |
| CC(=O)OCC(=O)[C@H]1CC[C@H]2[C@@H]3CCC4=CC(=O)CC[C@]4(C)[C@H]3CC[C@]12C [deoxycorticosterone-acetate] | > 10 µM | > 10 µM | > 10 µM | > 10 µM | > 10 µM | 0 | 0 | 0 | 0 | 0 | 100% | 99.8% | 96.2% | 98.7% | 91.7% | 96.8% | 100% | 103% | 102% | 99.2% | 98.4% | 99.8% | 100% | 91.9% | 107% | 85.4% | 114% | 100% | 122% | 101% | 107% | 110% | 95.9% | 91.5% | 107% |
| CCCCCCCC/C=C\CCCCCCCC(=O)NCc1ccc(O)c(OC)c1 [olvanil] | > 10 µM | > 10 µM | > 10 µM | > 10 µM | > 10 µM | 0 | 0 | 0 | 0 | 0 | 102% | 101% | 95.5% | 103% | 101% | 102% | 98.1% | 95.8% | 95.9% | 91% | 100% | 95% | 101% | 118% | 94.4% | 97.2% | 100% | 98% | 94.3% | 100% | 96.3% | 97.2% | 104% | 94.3% | 96.5% |
| CNC(=O)c1cccc2cc(Oc3ccnc4cc(OCC5(N)CC5)c(OC)cc34)ccc12 [lucitanib] | > 10 µM | > 10 µM | > 10 µM | > 10 µM | > 10 µM | 1.2 | 0 | 0 | 0 | 0.2 | 97.2% | 100% | 98.8% | 86.1% | 86% | 99.1% | 94.4% | 93.6% | 99% | 91.5% | 98.8% | 93% | 101% | 98.9% | 92.1% | 93.6% | 98.1% | 93.2% | 97.6% | 100% | 95.7% | 108% | 106% | 104% | 84% |
| Nc1ccncc1N [amifampridine] | > 10 µM | > 10 µM | > 10 µM | > 10 µM | > 10 µM | 0 | 0 | 0 | 0 | 0 | 95.7% | 100% | 98.2% | 97.7% | 91.8% | 97.7% | 95.5% | 96.1% | 95% | 96.9% | 106% | 96.9% | 96% | 98.8% | 98.1% | 99.2% | 97.3% | 91% | 91% | 103% | 98.1% | 96.4% | 98% | 93.7% | 89.6% |
| Cc1ccc(Cl)cc1N(CC(=O)Nc1c(F)cccc1F)S(C)(=O)=O [FPH1-(BRD-6125)] | > 10 µM | > 10 µM | > 10 µM | > 10 µM | > 10 µM | 0 | 0 | 0 | 0 | 0 | 98.3% | 103% | 97.6% | 97.2% | 99.1% | 97.7% | 103% | 105% | 101% | 97.8% | 110% | 93.4% | 97.8% | 105% | 87.3% | 104% | 97.2% | 111% | 99.7% | 107% | 100% | 107% | 104% | 94.5% | 108% |
| NC(=O)C1CCCc2c1[nH]c1ccc(Cl)cc21 (stereo not given) [EX-527] | > 10 µM | > 10 µM | > 10 µM | > 10 µM | > 10 µM | 0 | 0 | 0 | 0 | 0 | 94.1% | 107% | 93.7% | 98.9% | 109% | 95.9% | 93.2% | 105% | 93.4% | 98.1% | 107% | 101% | 107% | 96.6% | 94.7% | 99.7% | 94.8% | 98.5% | 92% | 103% | 93.3% | 107% | 98% | 110% | 106% |
| CCC(=O)OCN1C(=O)C=CC1=O [MIRA-1] | > 10 µM | > 10 µM | > 10 µM | > 10 µM | > 10 µM | 0 | 0 | 0 | 0 | 0 | 95.8% | 91.8% | 99.8% | 92% | 107% | 99.3% | 99.4% | 102% | 102% | 105% | 90.6% | 108% | 104% | 101% | 98.9% | 90.6% | 97.5% | 87.8% | 94.7% | 112% | 104% | 95.9% | 106% | 106% | 103% |
| NCCCCCC(=O)O [aminocaproic-acid] | > 10 µM | > 10 µM | > 10 µM | > 10 µM | > 10 µM | 0 | 0 | 0 | 0 | 0 | 102% | 106% | 98.6% | 109% | 92.6% | 104% | 97.1% | 101% | 95% | 98.5% | 105% | 90.6% | 96.9% | 91.3% | 99.4% | 119% | 99.3% | 102% | 105% | 109% | 81.2% | 95% | 96.6% | 94.1% | 90.9% |
| Cc1ccc(Sc2cncc3sc(C(N)=O)cc23)cc1 | > 10 µM | > 10 µM | > 10 µM | > 10 µM | > 10 µM | 0 | 0 | 1.2 | 0 | 1.6 | 94.3% | 98.3% | 82% | 91.4% | 98.1% | 100% | 97.5% | 110% | 108% | 113% | 95.7% | 102% | 89.6% | 90.9% | 80.6% | 97.7% | 92.1% | 96.5% | 89.2% | 90.8% | 94.4% | 105% | 86.7% | 87.6% | 87.7% |
| COCCN1CCN(Cc2ccc(-c3n[nH]c4c3C(=O)c3c(NC(=O)NN5CCOCC5)cccc3-4)cc2)CC1 | 0.306 µM | 0.269 µM | 0.165 µM | 0.186 µM | 0.0894 µM | 16 | 17.1 | 13.4 | 10.8 | 21.9 | 97.8% | 102% | 98.2% | 13.1% | 12.5% | 102% | 107% | 94.5% | 9.8% | 19% | 105% | 109% | 86.5% | 39% | 55.8% | 97.9% | 102% | 91.1% | 49% | 55% | 107% | 99.8% | 51% | 15.4% | 11.3% |
| CCCN(C/C=C/I)C1CCc2cccc(O)c2C1 (stereo not given) [8-hydroxy-PIPAT] | > 10 µM | > 10 µM | > 10 µM | > 10 µM | > 10 µM | 0 | 0 | 0 | 0 | 0.2 | 97.7% | 99.7% | 100% | 99.3% | 92.9% | 103% | 100% | 102% | 97.6% | 97.8% | 101% | 101% | 112% | 103% | 99.5% | 107% | 95.3% | 100% | 93.8% | 101% | 101% | 105% | 111% | 104% | 83.4% |
| Cc1ccc(S(=O)(=O)Nc2nc3ccccc3nc2Nc2ccc3nsnc3c2)cc1 [XL147] | > 10 µM | > 10 µM | > 10 µM | > 10 µM | > 10 µM | 0 | 0 | 0.4 | 0 | 0 | 93.7% | 94.1% | 100% | 96.3% | 95.2% | 96% | 103% | 104% | 99.2% | 95.1% | 93.3% | 113% | 98.6% | 88.6% | 97.6% | 96.1% | 107% | 98.6% | 105% | 92.9% | 107% | 101% | 90.9% | 97.7% | 99.5% |
| COc1cc(C(=O)c2c(C)oc3c(O)c(OC)ccc23)cc(OC)c1OC [BNC105] | < 0.001 µM | 0.0073 µM | 0.0078 µM | < 0.001 µM | 0.0055 µM | 38.3 | 31.5 | 27 | 30.3 | 24.7 | 34.9% | 22.7% | 22.8% | 27.9% | 30.4% | 100% | 44.7% | 20.9% | 19.3% | 19.7% | 106% | 54.6% | 33.7% | 39.2% | 30.9% | 62.8% | 39.6% | 41.4% | 37.9% | 41.1% | 86.2% | 60.4% | 42.6% | 35.7% | 38% |
